Source: patent US5972894A, “Peptides having potassium channel opener activity” (Cytran, Inc., priority 1997, dated 1999)
Residues, ends and D or L forms follow the SMILES beside them.

Tested on: ischemic myocardium
Assay: Inotropic function and arrhythmias of ischemic isolated rat heart during reperfusion
Conditions: for -dp/dtmax, % of preischemic value: by the 30th minute of reperfusion
Excerpt: Rat hearts were surgically isolated from white random-bred rats weighing approximately 250 g. The isolated hearts were perfused with a standard oxygenated (95% O2 and 5% CO2) Krebs-Henseleit solution in a retrograde manner (i.e., according to Langendorff and using a constant perfusate pressure of 80 cm of water). The hearts maintained a steady spontaneous contraction rate. A latex balloon catheter connected to a pressure transducer (EMT-746, Siemens-Elema, Sweden) was inserted into the left ventricle of each heart to measure the inotropic function of the heart (as described in Example 3, above). The left ventricle pressure variation curve was recorded using a polygraph.
Stage I ("adaptation regimen") consisted of a 30-minute adaptation of the respective rat hearts to the perfusion regimen. The baseline parameters for the inotropic function of each heart were recorded to establish the preischemic values for the following measured parameters: (i) the systolic pressure in the left ventricle (Psyst. mm Hg); (ii) the diastolic pressure in the left ventricle (Pdiast. mm Hg); (iii) the evolving pressure (Pev. =Psyst. -Pdist. mm Hg); (iv) the maximal rate of increase of left ventricle pressure (+dp/dtmax mm Hg/sec); and (v) the maximal rate of decrease of left ventricle pressure (-dp/dtmax mm Hg/sec). In addition, the heart rate (HR) of each heart was determined from the recordings made of the variations in the left ventricle pressure over time. In Stage II ("ischemic simulation"), ischemia was induced in each heart by shutting off the supply of the perfusion solution to the heart. Approximately 30 minutes later, Stage III ("reperfusion regimen") was initiated by restarting the reperfusion and including in the perfusate solution a test or control substance at one of the following respective concentrations: a perfusate solution of a test substance comprised 0.06, 0.6, or 6.0 mg/l GE, or 0.06, 0.6, or 6.0 mg/l VT, respectively; a perfusate solution of the positive control substance comprised 14 mg/l inosine. Inosine is a nucleoside preparation that produces a favorable inotropic effect on both normal and ischemic myocardium while inducing no rhythm disturbances or acceleration of ischemic contracture development. Woollard et al., Cardiovasc. Res. 15: 659-67 (1981). Inosine was obtained from Sigma Chemical Company, USA (Cat. Code I-4125; lot number 81H0227). The negative control substance comprised reperfusion using a standard oxygenated Krebs-Henseleit solution.
For each heart, the inotropic function of the myocardium was evaluated by measuring the parameters (i) through (v), discussed above, and the heart rate. These six parameters were recorded continuously throughout the study (i.e., beginning with Stage I and continuing through Stage III). The recordings were analyzed at the following times: (a) immediately before beginning Stage II (that is, after the 30-minute Stage I adaptation period, but before stopping perfusion); and (b) at 1, 5, 10, 20, and 30 minutes into the Stage III reperfusion.
The frequency and duration of rhythm disturbances in the 30-minute Stage III reperfusion period were determined by measuring the following parameters: (i) the number of ventricular extrasystoles; (ii) the overall duration of ventricular tachycardias (in seconds); and (iii) the overall duration of ventricular fibrillation (in seconds). Each dose of the test substance was tested on nine isolated hearts.

[1] = 6.0 mg/l, 30-minute reperfusion

## NCC(=O)N[C@@H](CCC(=O)O)C(=O)O [GE, L-Glycyl-L-Glutamic acid] (H-Gly-Glu-OH)
0.6 mg/l, 10 min reperfusion
  Systolic Pressure in Ischemic Left Ventricle (% of Preischemic Values): 88.40%
0.6 mg/l, 20 min reperfusion
  Diastolic Pressure in Ischemic Left Ventricle (% of Preischemic Mean Value): 99.28%
  Evolving Pressure in Ischemic Left Ventricle (% of Preischemic Mean Value): 78.42%
  Heart Rate during Reperfusion (% of Preischemic Mean Value): 91.53%
  Maximal Rate of Increase of Left Ventricle Pressure (% of Preischemic Mean Value): 81.12%
  Maximal Rate of Left Ventricle Pressure Decrease (% of Preischemic Mean Value): 84.10%
  Systolic Pressure in Ischemic Left Ventricle (% of Preischemic Values): 82.35%
0.6 mg/l, 30 min reperfusion
  Diastolic Pressure in Ischemic Left Ventricle (% of Preischemic Mean Value): 127.06%
  Evolving Pressure in Ischemic Left Ventricle (% of Preischemic Mean Value): 87.22%
  Heart Rate during Reperfusion (% of Preischemic Mean Value): 106.61%
  Maximal Rate of Increase of Left Ventricle Pressure (% of Preischemic Mean Value): 97.62%
  Maximal Rate of Left Ventricle Pressure Decrease (% of Preischemic Mean Value): 91.20%
  Systolic Pressure in Ischemic Left Ventricle (% of Preischemic Values): 91.89%
0.6 mg/l, after 30 minutes of reperfusion
  restoration of +dp/dtmax: nearly to its preischemic level
0.6 mg/l, after about 20 or about 30 minutes of reperfusion, respectively
  evolving pressure, % of preischemic level: ≥ 85%
0.6 mg/l
  -dp/dtmax, % of preischemic value: greater than 90%
[1]
  Number of Ventricular Extrasystoles: 174.9
  Overall Duration of Ventricular Fibrillation: 79.6 s
  Overall Duration of Ventricular Tachycardia: 5.2 s
6.0 mg/l, 1 min reperfusion
  Diastolic Pressure in Ischemic Left Ventricle (% of Preischemic Mean Value): 53.97%
  Evolving Pressure in Ischemic Left Ventricle (% of Preischemic Mean Value): 78.34%
  Heart Rate during Reperfusion (% of Preischemic Mean Value): 38.86%
  Maximal Rate of Increase of Left Ventricle Pressure (% of Preischemic Mean Value): 71.18%
  Maximal Rate of Left Ventricle Pressure Decrease (% of Preischemic Mean Value): 59.93%
  Systolic Pressure in Ischemic Left Ventricle (% of Preischemic Values): 72.87%
6.0 mg/l, 5 min reperfusion
  Diastolic Pressure in Ischemic Left Ventricle (% of Preischemic Mean Value): 65.08%
  Evolving Pressure in Ischemic Left Ventricle (% of Preischemic Mean Value): 68.80%
  Heart Rate during Reperfusion (% of Preischemic Mean Value): 55.65%
  Maximal Rate of Increase of Left Ventricle Pressure (% of Preischemic Mean Value): 68.10%
  Maximal Rate of Left Ventricle Pressure Decrease (% of Preischemic Mean Value): 70.76%
  Systolic Pressure in Ischemic Left Ventricle (% of Preischemic Values): 67.10%
6.0 mg/l, 10 min reperfusion
  Diastolic Pressure in Ischemic Left Ventricle (% of Preischemic Mean Value): 103.17%
  Evolving Pressure in Ischemic Left Ventricle (% of Preischemic Mean Value): 74.86%
  Heart Rate during Reperfusion (% of Preischemic Mean Value): 82.12%
  Maximal Rate of Increase of Left Ventricle Pressure (% of Preischemic Mean Value): 77.78%
  Maximal Rate of Left Ventricle Pressure Decrease (% of Preischemic Mean Value): 93.15%
  Systolic Pressure in Ischemic Left Ventricle (% of Preischemic Values): 77.71%
6.0 mg/l, 20 min reperfusion
  Diastolic Pressure in Ischemic Left Ventricle (% of Preischemic Mean Value): 83.98%
  Evolving Pressure in Ischemic Left Ventricle (% of Preischemic Mean Value): 78.47%
  Heart Rate during Reperfusion (% of Preischemic Mean Value): 77.12%
  Maximal Rate of Increase of Left Ventricle Pressure (% of Preischemic Mean Value): 82.47%
  Maximal Rate of Left Ventricle Pressure Decrease (% of Preischemic Mean Value): 95.32%
  Systolic Pressure in Ischemic Left Ventricle (% of Preischemic Values): 77.71%
6.0 mg/l, 30 min reperfusion
  Diastolic Pressure in Ischemic Left Ventricle (% of Preischemic Mean Value): 132.47%
  Evolving Pressure in Ischemic Left Ventricle (% of Preischemic Mean Value): 73.08%
  Heart Rate during Reperfusion (% of Preischemic Mean Value): 63.29%
  Maximal Rate of Increase of Left Ventricle Pressure (% of Preischemic Mean Value): 74.49%
  Maximal Rate of Left Ventricle Pressure Decrease (% of Preischemic Mean Value): 93.07%
  Systolic Pressure in Ischemic Left Ventricle (% of Preischemic Values): 79.73%
6.0 mg/l
  -dp/dtmax, % of preischemic value: greater than 90%
0.06-6.0 mg/l
  arrhythmogenic effect during reperfusion: Neither GE nor VT was found to have an arrhythmogenic effect
0.06 and 0.6 mg/l
  effect on systolic pressure drop: prevented the dramatic drop in systolic pressure
0.06 and 6.0 mg/l
  chronotropic effect on heart rate: moderate negative chronotropic effect
reperfusion
  effect on diastolic pressure increase: prevented the increase in diastolic pressure
